100 compounds from PubChem BioAssay AID493003 (Sanford-Burnham Center for Chemical Genomics, 2010) can be followed below.

Calls of active or inactive are those of the source. No rule for the calls is given here. Where only a bound is given, the exact number is not on record here.

For this experiment, the system named is S. cerevisiae tim10-1 mutant growth, luminescence. Put plainly: growth inhibitors of tim10-1 mutant yeast, dose response, luminescence, S. cerevisiae, uHTS hits (AID 493003).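 Also: yeast growth measured after about 22 hours at 25 °C.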
For `Cc1c(Cl)c([N+](=O)[O-])nn1Cc1ccc(C(=O)Nc2ccc(Cl)cn2)o1`, the IC50 (as a rule, the concentration that inhibits the measured activity by half) is 47.6 µM.
Regarding `Cc1cccc(C(=O)O/N=C2\CCCc3ccccc32)c1`, the IC50 is > 100 µM (inactive).
Under `CCn1nc(C)c(C(=O)Nc2cc(Oc3ccc(Cl)cc3)cc([N+](=O)[O-])c2)c1C` stands 43.1 µM.
The figure for `O=c1c2ccccc2oc2ccc(C#CC3(O)CCCCC3)cc12` is 23.3 µM; for `CCCC(=O)Nn1cnc2c(c1=O)C1(CCCC1)Cc1ccccc1-2` it is 75.2 µM; for `CCCCc1ccc(NC(=S)Nc2ccc(Nc3ccc(OC)cc3)cc2)cc1` it is 12.9 µM.
As to `COc1cc(C(=O)O/N=C(\N)Cc2ccc([N+](=O)[O-])cc2)cc(OC)c1OC`, the IC50 is 22.3 µM.
The figure for `COc1cc(/C=N/O)ccc1Oc1ccc([N+](=O)[O-])cc1[N+](=O)[O-]` is 24.4 µM; for `COc1ccc2cc3cc(C(=O)NCCN4CCc5ccccc5C4)oc3nc2c1` it is 0.69 µM; for `COc1cc(/C=C/c2ccc3cccc(O)c3n2)c(Br)cc1O` it is 15.4 µM.
Under `O=C(Nc1cc(Sc2ccccn2)cc([N+](=O)[O-])c1)c1cccc(F)c1` stands 88 µM.
The figure for `N/C(Cc1cccs1)=N\OC(=O)COc1ccc(Cl)cc1Cl` is 24.7 µM.
On to `COc1ccc(Cl)cc1NC(=S)NCCSc1ccc(C)cc1`, for which the IC50 is 17.6 µM.
With `N#C/C(=C\c1c[nH]c2ccc(Br)cc12)c1ccccn1`, the IC50 was 33.4 µM.
Under `O=C(CSCc1ccccc1Cl)NNC(=S)Nc1ccccc1` stands 33 µM; under `Clc1cccc(C2Nc3cccc4cccc(c34)N2)c1Cl`, 25.7 µM.
The figure for `O=C(CNS(=O)(=O)c1c(Cl)cccc1Cl)OCc1csc(-c2ccccc2)n1` is 41 µM; for `OCCN1CCN(CCCN2c3ccccc3Sc3ccc(C(F)(F)F)cc32)CC1` it is 31.3 µM; for `O=C(c1cc(COc2cccc(C(F)(F)F)c2)on1)N1C[C@@H]2CCC[C@H]1C2` it is 27.3 µM.
Under `N#Cc1sc2nc(C3CC3)cc(-c3ccc(Cl)cc3)c2c1N` stands > 100 µM (inactive); under `O=C(N/N=C/c1ccc[nH]1)c1cc(-c2ccc(Cl)cc2)nc2ccccc12`, 10.1 µM.
On to `Cc1c(Cl)cccc1NC(=O)c1cccc(OC(F)F)c1`, for which the IC50 was 32.8 µM.
The figure for `O=C1CN(C(=O)/C=C/c2cccc(Cl)c2)c2ccccc2N1` is 30.3 µM; for `Cc1ccccc1NC1=NC(=S)N(c2ccccc2)C12CCCCC2` it is 14.7 µM; for `COc1cc(C(=O)Nc2ccc(Cl)c(C(F)(F)F)c2)cc(OC)c1OC` it is 16.8 µM.
With `COc1ccc(C/C(=N\OC(C)=O)c2ccc(OC)cc2)cc1`, the IC50 was 25.7 µM.
The figure for `CCOC(=O)C1CCN(C2CC(=O)N(c3cccc(Cl)c3)C2=O)CC1` (stereo not given) is 37.2 µM; for `C=CCNC(=S)NNc1nc2c(c(=O)[nH]1)C1(CCCC1)Cc1ccccc1-2` it is 27.7 µM; for `Brc1ccc(-c2cn3c(n2)CCc2ccc4cccnc4c2-3)cc1` it is > 100 µM (inactive).
The figure for `C/C=C(/C(=C/C)c1ccc(O)cc1)c1ccc(O)cc1` is 25.6 µM.
Under `N/C(=N\OC(=O)c1ccc(F)cc1)c1ccc(Br)cc1` stands 6.61 µM; under `COc1cc(N=c2ssnc2Cl)c(OC)cc1Cl`, 13 µM.
On to `COc1ccc(-n2c(CNc3ccc(C)cc3)nnc2SCc2ccccc2)cc1`, for which the IC50 was 26.4 µM.
The figure for `CCCn1c(CC)nc([N+](=O)[O-])c1S(=O)(=O)c1ccccc1` is 13.1 µM; for `O=[N+]([O-])c1cc(/C=N/O)ccc1Oc1ccccc1Cl` it is 33.9 µM.
Under `Cc1ccc(O)c(-c2cc(-c3cccc(F)c3)n[nH]2)c1` stands 97.9 µM.
Under `c1ccc(Nc2cccc(Nc3ccccc3)c2)cc1` stands 11.2 µM; under `Cc1nn(-c2ccc(Cl)cc2)c2[nH]c(CCl)cc(=O)c12`, 33.5 µM.
Turning to `CCc1c(C)[nH]n(-c2nc(-c3ccccc3)cs2)c1=O`, the IC50 is 38.4 µM.
For the compound `O=C(Oc1ccc(C(=S)N2CCOCC2)cc1)c1ccccc1[N+](=O)[O-]`, the IC50 was 25.4 µM.
Under `COc1ccc(Cc2n[nH]c(=S)n2NC(=O)Nc2ccc(Cl)c(Cl)c2)cc1` stands 56.5 µM.
Under `O=C(CN1CCN(S(=O)(=O)c2ccc(F)cc2)CC1)Nc1ccc(Cl)c(C(F)(F)F)c1` stands 18.8 µM.
Under `Cn1c(Cl)cnc1C1CC(=O)c2cc(Cl)ccc2O1` (stereo not given) stands 8.24 µM.
In the case of `COc1ccc(C(=O)C(CN2CCCC2)c2ccccc2)cc1` (stereo not given), the IC50 was 19 µM.
The figure for `COc1ccccc1C(CCNCc1ccccc1)c1ccc(OC(C)C)cc1` (stereo not given) is 19.9 µM.
Under `O=C(OCn1ncc(Br)c(Br)c1=O)c1ccccc1Cl` stands 6.12 µM; under `C=CCn1c(SCc2c(F)cccc2Cl)nnc1-c1ccco1`, 34.8 µM.
Under `Cc1cc([N+](=O)[O-])ccc1-c1ccc(C2Nc3ccccc3C(=O)N2O)o1` (stereo not given) stands 12.4 µM; under `Cc1nc(SCC(=O)N2CCN(c3ccccc3)CC2)c2oc3ccccc3c2n1`, 40.7 µM; under `Cc1ccc(-c2cc(-c3cccc(F)c3)n[nH]2)c(O)c1`, 40.4 µM.
Turning to `COc1ccc(NC2CCN(C3CC(=O)N(c4ccc(F)c(Cl)c4)C3=O)CC2)cc1` (stereo not given), the IC50 was 10.4 µM.
The figure for `CN(C1CCCCC1)S(=O)(=O)c1ccc(NC(=O)c2ccco2)cc1` is 38 µM; for `CC(C)(C)OC(=O)N[C@@H](Cc1ccccc1)c1nnc(S(=O)(=O)Cc2cccc(F)c2)o1` it is 5.87 µM.
Under `CCOC(=O)c1c(-c2ccccc2)oc2cc(Br)c(O)cc12` stands 20.6 µM; under `N/C(=N\OC(=O)CCC1CCCC1)c1cccc([N+](=O)[O-])c1`, 6.48 µM.
`CCCN(CC1COc2ccccc2O1)C(=S)Nc1ccc(C)cc1` (stereo not given): the IC50 was 33.5 µM.
Under `CN(CCc1ccccn1)C1CC(=O)N(c2ccc(Cl)cc2)C1=O` (stereo not given) stands 24.7 µM.
The figure for `CN1CCN(c2ccccc2NC(=O)c2ccc(-c3ccc(Cl)c(Cl)c3)o2)CC1` is 15.1 µM; for `Cn1c(-c2ccccc2O)cc2ccccc21` it is 29.5 µM.
Regarding `CCN(CC)c1ncnc2c1ncn2Cc1c(Cl)cccc1Cl`, the IC50 is 45.9 µM.
Under `Nc1ccccc1Sc1ccc(C(F)(F)F)cc1[N+](=O)[O-]` stands 28.9 µM; under `C=CCN1C(=O)C(O)(CC(=O)c2ccc(-n3cccc3)cc2)c2ccccc21` (stereo not given), 24.1 µM; under `COc1ccc(-c2[nH]ncc2N=Nc2ccccc2)cc1`, 16.7 µM.
Under `O=C(CCNc1ccc(Cc2ccncc2)cc1)c1cccc([N+](=O)[O-])c1` stands 49.2 µM; under `COc1cc(Br)cc(/C=C/c2ccc3cccc(O)c3n2)c1O`, 47.2 µM.
Under `O=C(COc1ccc(Cl)cc1Cl)Nc1ccc(S(=O)(=O)NC2=NCCCCC2)cc1` stands 24.5 µM; under `O=C(NC(=S)Nc1ccccc1N1CCCC1)c1ccc([N+](=O)[O-])cc1`, 14 µM; under `N/C(=N\OC(=O)CC(c1ccccc1)c1ccccc1)c1cccnc1`, 41.8 µM.
For the compound `CCOc1cc(-c2c(C#N)c(N)nc3c2CCCC3C)ccc1O` (stereo not given), the IC50 was 43.8 µM.
The figure for `CCCCCc1ccc(OCCCC[n+]2ccccc2)c(CCCCC)c1` is 24.8 µM; for `COc1c(OC(C)=O)ccc(/C=C/c2ccc3ccccc3n2)c1[N+](=O)[O-]` it is 43.2 µM; for `S=c1[nH]nc(-c2ccco2)n1/N=C/C=C/c1ccccc1` it is 42.7 µM.
Under `CCOC(=O)c1ccc(N2C(=O)CC(N3CCC(Nc4ccc(F)cc4)CC3)C2=O)cc1` (stereo not given) stands 55 µM; under `C/C(=N\OC(=O)NC(C)C)c1sc(-c2ccc(Cl)cc2)nc1C`, 33.5 µM; under `O=C1c2cccc(Cl)c2C(=O)c2c1cccc2N1CCCC1`, 18.4 µM.
Under `Cc1ccc(F)c([C@H]2[C@@H]3C=CCC[C@@]3(C)C(=O)N2Cc2ccccc2)c1` stands 14.6 µM; under `C/C(=N\N=C1\NC(=O)C(CC(=O)Nc2ccc(C)c(Cl)c2)S1)C(C)(C)C` (stereo not given), 47.3 µM; under `COc1ccc2[nH]c3c(=O)n4c(nc3c2c1)SCCC4`, 40.7 µM.
In the case of `Cc1ccccc1SCC(=O)Nc1cc(C(F)(F)F)ccc1N1CCOCC1`, the IC50 was 28.4 µM.
The figure for `COc1cc(/C=C/C(=O)CC(=O)/C=C/c2ccc(O)c(OC)c2)ccc1O` is 19.7 µM; for `CCNC(=S)NNC(=O)c1cc(-c2cc(C)ccc2C)nc2ccccc12` it is 24.3 µM; for `CSc1ccc(/C=C/C(=O)c2ccc(NC(=O)C(C)C)cc2)cc1` it is 20.4 µM.
Under `CC(C)(C)c1ccc(C(=O)CC(Sc2ccc(Cl)cc2)C(=O)O)cc1` (stereo not given) stands 27.6 µM; under `CCOC(=O)C1CCCN(C2CC(=O)N(c3cccc(C(F)(F)F)c3)C2=O)C1` (stereo not given), 13.7 µM; under `O=Cc1c[nH]c2cccc(OCc3ccccc3)c12`, 27.4 µM.
Consider `O=C(Nc1ccc(N2CCN(C(=O)c3ccccc3)CC2)c(Cl)c1)c1ccc(Br)o1`, for which the IC50 was 41.8 µM.
Under `O=C(NC(=S)NNC(=O)c1ccccc1[N+](=O)[O-])c1ccc(Br)cc1` stands 10.1 µM; under `O=C(Nc1ccc(C(=O)N2CCN(c3ccc(F)cc3)CC2)cc1)C1=CSCCO1`, 44.3 µM; under `Clc1ccc(Cn2c(/C=C/c3ccco3)nc3ccccc32)cc1`, 45.7 µM.
As for `CCOC(=O)c1ccc2[nH]c3c(c2c1)CCCC3`, the IC50 is 34.4 µM.
In the case of `N/C(=N\OC(=O)CCC1CCCCC1)c1ccccn1`, the IC50 is 26.8 µM.
Under `Cc1nc2ccccn2c1P(=S)(N1CCCCC1)N1CCCCC1` stands 39.7 µM; under `O=C1CC(N2CCCCCC2)C(=O)N1c1ccc(F)cc1` (stereo not given), 13.9 µM; under `CCCCNC(=S)N=Nc1c(O)[nH]c2ccccc12`, 9.9 µM.
The figure for `COC(=O)c1cc(C)[nH]c2c(C)cc3nc4ccccc4c3c12` is 21 µM; for `Cc1nn(-c2ccc(F)cc2)c(C)c1NS(=O)(=O)c1ccc(Cl)cc1` it is 19.9 µM.
`O=C(O)/C=C/C(=O)c1ccc2c(c1)CCc1ccccc1-2`: the IC50 is 10.9 µM.
Turning to `CCOC(=O)n1c(=O)n(Cc2ccccc2Cl)c2ccccc21`, the IC50 was 27.6 µM.
The figure for `Cc1ccc(C(=O)c2no[n+]([O-])c2C(=O)c2ccc(C)cc2)cc1` is 15.3 µM; for `COc1ccc(Br)c(-c2nnc(CS(=O)(=O)c3ccccc3)o2)c1` it is 28.4 µM.
